# Laboratory results: patent US9688672B2, “3-pyrimidin-4-yl-oxazolidin-2-ones as inhibitors of mutant IDH” (NOVARTIS AG, priority 2013, dated 2017)
# Legend:
# [1] = Metabolic stability in liver microsomes, Method II; type: in vitro ADME
# Procedure: Determination of Metabolic Stability in Liver Microsomes—Method II
# The in vitro metabolic stability assay was performed in a 96-deep-well plate with incubation at 37° C. 10 mM DMSO stock solution of the test compound was diluted 1:20 in acetonitrile, followed by an additional 1:10 dilution in 100 mM potassium phosphate buffer (KPi) to yield a final reaction concentration of 1 μM. Immediately prior to the start of the experiment, respective animal or human liver microsomes (male Sprague-dawley rat, male CD-1 mouse, or pooled human liver microsomes) were diluted in 100 mM KPi to 1.25 mg/mL liver microsomal protein. […]
# At 0, 5, 15 and 30 minute time points in the reaction, reaction aliquots (75 μL) were removed and the reactions were terminated by the addition of 50:50 acetonitrile/methanol solution (75 μL) containing a mass spectrometry internal standard (0.5 μM glyburide). […] The supernatants solution were analyzed by UPLC/MS/MS for quantitation of parent remaining compound under multiple reactions monitoring mode (MRM) in positive mode. […]
# The injection volume was 5 μL. Compounds were detected using Analyst 1.5.1 software which collects intensity data for all fragments related to the molecular weight of the test compound. […]
# The intrinsic clearance value, CLint (expressed as μL/min/mg microsomal protein) calculation is shown below: […]
# [2] = Metabolic stability in liver microsomes, Method II; type: in vitro ADME; remark: listed apart in the source
# Procedure: The in vitro metabolic stability assay was performed in a 96-deep-well plate with incubation at 37° C. 10 mM DMSO stock solution of the test compound was diluted 1:20 in acetonitrile, followed by an additional 1:10 dilution in 100 mM potassium phosphate buffer (KPi) to yield a final reaction concentration of 1 μM. […] 290 μL of cofactor solution (1.7 mM NADPH, 1.7 mM UDPGA, 3.4 mM MgCl in 100 mM KPi) was added to 200 μL of microsomal protein for a final volume of 490 μL. The reaction was initiated by adding 10 μL of the 50 μM test solution to 490 μL of microsomal protein for a final volume 500 μL enzyme-compound mixture.
# At 0, 5, 15 and 30 minute time points in the reaction, reaction aliquots (75 μL) were removed and the reactions were terminated by the addition of 50:50 acetonitrile/methanol solution (75 μL) containing a mass spectrometry internal standard (0.5 μM glyburide). The samples were centrifuged at 4000 RPM for 10 minutes. […] The supernatants solution were analyzed by UPLC/MS/MS for quantitation of parent remaining compound under multiple reactions monitoring mode (MRM) in positive mode. […]
compound,measurement,setting,value
"C[C@H](Nc1ncc(F)c(N2C(=O)OC[C@@H]2[C@H](C)F)n1)c1cn(-c2ccc(Cl)cc2F)cn1 [Example 477, (R)-3-(2-(((S)-1-(1-(4-chloro-2-fluorophenyl)-1H-imidazol-4-yl)ethyl)amino)-5-fluoropyrimidin-4-yl)-4-((S)-1-fluoroethyl)oxazolidin-2-one]",Human microsomal stability CLint,[1],30.44 µL/min/mg
same,Mouse microsomal stability CLint,[2],167.04 µL/min/mg
